In publication PMC2099433, “The binding site for neohesperidin dihydrochalcone at the human sweet taste receptor” (BMC Structural Biology, 2007):

Legend:
[1] = molecular target: T1, rat Tas1r3 and human TAS1R2 (opposite combination) (Rattus norvegicus, UniProt Q923K1); test: Calcium response, opposite interspecies subunit combination; type: cell-based; conditions: 1 mM NHDC
T1 construct: expressed in transfected cells; host or cells: HEK293T cells stably expressing G16Gust44
Text: In order to elucidate the putative binding site for NHDC, we cotransfected mixtures of plasmid DNAs for the rat and human TAS1R2 and TAS1R3 receptor subunits in HEK293T cells stably expressing the chimeric G-protein G16Gust44 and measured cellular calcium responses by fluorometry following bath application of various sweet tasting compounds.
Figure 1 Chemical structure and calcium responses elicited by neohesperidin dihydrochalcone. (A) Structure of neohesperidin dihydrochalcone. Numbers denote carbon atom positions. […]
The cDNAs for TAS1Rs tagged at the C-terminus with the herpes simplex virus glycoprotein D (HSV) were transiently transfected into HEK293T cells stably expressing the chimeric G-protein subunit G16Gust44 [44] using Lipofectamine 2000 (Invitrogen, Carlsbad, CA) according to the manufacturer's protocol. […] We monitored calcium mobilization following receptor stimulation with sweet tastants by an automated fluorometric imaging plate reader (FLIPR, Molecular Devices, Sunnyvale, CA). […] The obtained calcium signals were corrected for the response of mock transfected cells and normalized to the fluorescence of cells prior to the application of the stimulus using ΔF/F = (F-F0)/F0. Concentration-response curves and EC50 and IC50 values were calculated in SigmaPlot by nonlinear regression using the function f = ((a-d)/(1+(x/EC50)^nH)+d) and f = (a-b)/[1+(x/IC50)^nH]+b, respectively.

[2] = molecular target: T2, hTAS1R2 + hTAS1R3 L782A^6.55 (Homo sapiens, UniProt Q7RTX0+Q8TE23, L782A); set-up: method as in PMID 15668251; conditions: mutation L782A^6.55; cited from earlier work
T2 construct: expressed in transfected cells; host or cells: HEK293T cells stably expressing G16Gust44
T2 sequence (Q8TE23 20-839): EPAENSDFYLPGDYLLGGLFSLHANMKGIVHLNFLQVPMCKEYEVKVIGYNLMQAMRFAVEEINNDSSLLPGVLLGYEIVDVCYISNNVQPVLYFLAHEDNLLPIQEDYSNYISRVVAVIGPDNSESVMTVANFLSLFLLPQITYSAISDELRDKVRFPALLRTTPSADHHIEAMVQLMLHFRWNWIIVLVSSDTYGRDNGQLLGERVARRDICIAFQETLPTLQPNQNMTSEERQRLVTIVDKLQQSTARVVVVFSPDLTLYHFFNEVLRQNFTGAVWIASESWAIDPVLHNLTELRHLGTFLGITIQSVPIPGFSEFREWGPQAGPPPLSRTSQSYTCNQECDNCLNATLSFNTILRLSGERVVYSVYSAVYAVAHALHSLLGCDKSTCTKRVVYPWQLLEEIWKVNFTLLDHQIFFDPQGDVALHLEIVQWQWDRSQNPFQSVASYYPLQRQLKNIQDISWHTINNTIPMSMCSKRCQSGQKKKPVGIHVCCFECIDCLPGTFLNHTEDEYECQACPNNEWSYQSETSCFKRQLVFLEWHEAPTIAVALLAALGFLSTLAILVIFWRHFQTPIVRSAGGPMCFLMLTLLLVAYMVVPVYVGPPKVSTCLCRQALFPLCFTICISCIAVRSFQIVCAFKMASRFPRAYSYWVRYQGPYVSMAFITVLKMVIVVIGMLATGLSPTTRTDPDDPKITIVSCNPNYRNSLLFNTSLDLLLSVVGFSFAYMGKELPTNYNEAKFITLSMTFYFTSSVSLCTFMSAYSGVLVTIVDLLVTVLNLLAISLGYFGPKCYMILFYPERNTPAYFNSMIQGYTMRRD
T2 sequence (Q7RTX0 21-852 L782A): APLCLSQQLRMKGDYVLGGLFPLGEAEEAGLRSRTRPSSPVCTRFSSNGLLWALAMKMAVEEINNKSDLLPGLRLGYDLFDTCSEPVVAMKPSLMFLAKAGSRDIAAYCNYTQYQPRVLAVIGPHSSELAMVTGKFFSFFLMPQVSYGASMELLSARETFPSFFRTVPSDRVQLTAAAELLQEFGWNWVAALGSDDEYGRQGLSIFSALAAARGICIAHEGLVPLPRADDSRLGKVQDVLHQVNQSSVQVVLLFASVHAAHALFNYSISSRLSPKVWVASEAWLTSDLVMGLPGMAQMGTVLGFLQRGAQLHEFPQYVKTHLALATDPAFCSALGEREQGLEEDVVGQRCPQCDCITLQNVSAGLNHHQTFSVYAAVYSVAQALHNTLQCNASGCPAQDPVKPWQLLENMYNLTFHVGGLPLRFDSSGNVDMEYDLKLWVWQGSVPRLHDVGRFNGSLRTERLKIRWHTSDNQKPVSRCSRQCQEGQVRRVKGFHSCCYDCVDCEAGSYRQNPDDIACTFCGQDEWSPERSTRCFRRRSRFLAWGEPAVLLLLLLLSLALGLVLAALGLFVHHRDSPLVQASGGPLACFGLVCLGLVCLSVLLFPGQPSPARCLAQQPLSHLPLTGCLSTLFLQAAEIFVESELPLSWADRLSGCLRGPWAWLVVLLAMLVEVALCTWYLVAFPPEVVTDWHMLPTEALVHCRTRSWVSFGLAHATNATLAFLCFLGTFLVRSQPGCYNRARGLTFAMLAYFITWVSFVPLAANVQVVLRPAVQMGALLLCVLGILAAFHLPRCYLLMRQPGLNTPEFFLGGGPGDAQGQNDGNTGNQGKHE

T1 sequence (Q923K1 21-858, one chain of several): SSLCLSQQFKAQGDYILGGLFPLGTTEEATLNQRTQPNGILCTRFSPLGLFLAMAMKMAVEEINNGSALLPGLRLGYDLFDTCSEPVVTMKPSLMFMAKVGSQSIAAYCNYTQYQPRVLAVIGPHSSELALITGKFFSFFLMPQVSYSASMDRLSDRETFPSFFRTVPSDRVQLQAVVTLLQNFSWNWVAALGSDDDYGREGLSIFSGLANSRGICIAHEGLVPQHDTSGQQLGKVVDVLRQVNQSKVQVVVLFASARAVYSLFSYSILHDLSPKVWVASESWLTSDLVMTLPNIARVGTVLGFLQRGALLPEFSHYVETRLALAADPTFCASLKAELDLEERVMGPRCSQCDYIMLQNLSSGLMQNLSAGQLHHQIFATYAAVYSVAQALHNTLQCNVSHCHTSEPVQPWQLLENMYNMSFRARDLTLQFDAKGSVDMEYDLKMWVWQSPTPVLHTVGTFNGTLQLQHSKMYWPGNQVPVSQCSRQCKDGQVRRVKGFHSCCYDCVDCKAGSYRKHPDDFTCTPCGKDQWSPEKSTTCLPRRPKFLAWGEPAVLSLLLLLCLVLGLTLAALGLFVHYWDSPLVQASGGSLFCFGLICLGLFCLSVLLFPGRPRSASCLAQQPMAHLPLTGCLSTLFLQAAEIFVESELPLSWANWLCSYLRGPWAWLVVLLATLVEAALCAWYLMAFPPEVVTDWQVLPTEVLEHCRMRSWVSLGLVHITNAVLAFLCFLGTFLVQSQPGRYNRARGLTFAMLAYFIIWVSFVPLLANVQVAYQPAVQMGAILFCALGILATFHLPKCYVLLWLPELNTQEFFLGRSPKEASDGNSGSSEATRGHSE

Row | calcium response [1] | SMILES | receptor activation [2]
1 | did not | COc1ccc(CCC(=O)c2c(O)cc(O[C@@H]3O[C@H](CO)[C@@H](O)[C@H](O)[C@H]3O[C@@H]3O[C@@H](C)[C@H](O)[C@@H](O)[C@H]3O)cc2O)cc1O [NHDC, neohesperidin dihydrochalcone] | 
2 |  | O=S(=O)(O)NC1CCCCC1 [cyclamate] | abolished activation
